Data reported in PMC12298351, “Novel 3,19-(N-Phenyl-3-(4-fluorophenyl)-pyrazole) Acetal of Andrographolide Promotes Cell Cycle Arrest and Apoptosis in MDA-MB-231 Breast Cancer Cells” (Pharmaceuticals, 2025).

Legend:
[1] = tested on: LOX IMVI
[2] = tested on: UACC-62; settings: UACC-62, Melanoma
[3] = tested on: K-562; settings: K-562, Leukemia
[4] = tested on: M14; type: cell-based; settings: M14, Melanoma
[5] = tested on: NCI-H23
[6] = tested on: OVCAR-5; settings: OVCAR-5, Ovarian
[7] = tested on: MALME-3M; settings: Melanoma
[8] = tested on: NCI-H522
[9] = tested on: OVCAR-3; settings: OVCAR-3, Ovarian
[10] = tested on: UACC-257; settings: UACC-257, Melanoma
[11] = tested on: DU-145; settings: DU-145, Prostate
[12] = tested on: SK-OV-3; settings: SK-OV-3, Ovarian
[13] = tested on: SK-MEL-28; settings: SK-MEL-28, Melanoma
[14] = tested on: SF-539; settings: SF-539, CNS
[15] = tested on: PC-3; settings: PC-3, Prostate
[16] = DPPH radical scavenging assay; settings: 25 µM test compound, 0.1 mM DPPH, acetonitrile, 30 min
Procedure, shortened: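 Compounds at 25 µM in acetonitrile mixed 1:2 with 0.1 mM DPPH in acetonitrile, kept 30 min in the dark at room temperature. Absorbance read at 517 nm; % scavenging = (Ac − As)/Ac × 100, Ac being DPPH blank. Ascorbic acid positive control.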

[17] = tested on: OVCAR-4; type: cell-based; settings: OVCAR-4, Ovarian
[18] = tested on: HCT-15; settings: HCT-15, Colon
[19] = tested on: HT29; settings: HT29, Colon
[20] = tested on: U251; settings: U251, CNS
[21] = tested on: MDA-MB-468; settings: MDA-MB-468, Breast
[22] = tested on: MOLT-4; settings: MOLT-4, Leukemia
[23] = tested on: OVCAR-8; settings: OVCAR-8, Ovarian
[24] = tested on: HCT-116; type: cell-based; settings: HCT-116, Colon
[25] = tested on: NCI/ADR-RES
[26] = tested on: A549/ATCC
[27] = tested on: RPMI-8226; settings: RPMI-8226, Leukemia
[28] = tested on: COLO 205; settings: COLO 205, Colon
[29] = read-out: 50% lethal concentration (LC50)

## C=C1CCC2C3(C)COC(c4cn(-c5ccccc5)nc4-c4ccc(OC)cc4)OC3CCC2(C)C1CC=C1C(=O)OCC1O (centres unmarked) [1j]
[1]; Melanoma
  GI50: 1.57 µM
  Total growth inhibition (TGI): 2.93 µM
[1]; read-out: 50% lethal concentration (LC50), Melanoma
  CC50: 5.47 µM
[2]
  GI50: 1.91 µM
  Total growth inhibition (TGI): 4.26 µM
[2]; [29]
  CC50: 9.48 µM
[3]
  GI50: 1.9 µM
[3]; [29]
  CC50: > 100 µM
[4]
  GI50: 1.72 µM
  Total growth inhibition (TGI): 3.54 µM
[5]; NCI-H23, Non-Small Cell Lung
  Total growth inhibition (TGI): 3.74 µM
[5]; NCI-H23, Non-Small-Cell Lung
  GI50: 1.71 µM
[5]; read-out: 50% lethal concentration (LC50), NCI-H23, Non-Small Cell Lung
  CC50: 8.2 µM
[6]
  GI50: 1.86 µM
  Total growth inhibition (TGI): 4.21 µM
[6]; [29]
  CC50: 9.52 µM
[7]
  GI50: 1.54 µM
  Total growth inhibition (TGI): 2.93 µM
[8]; NCI-H522, Non-Small Cell Lung
  Total growth inhibition (TGI): 3.24 µM
[8]; NCI-H522, Non-Small-Cell Lung
  GI50: 1.73 µM
[8]; read-out: 50% lethal concentration (LC50), NCI-H522, Non-Small Cell Lung
  CC50: 6.06 µM
[9]
  GI50: 1.5 µM
  Total growth inhibition (TGI): 2.96 µM
[9]; [29]
  CC50: 5.84 µM
[10]
  GI50: 1.64 µM
  Total growth inhibition (TGI): 3.28 µM
[11]
  GI50: 2.04 µM
  Total growth inhibition (TGI): 4.94 µM
[11]; [29]
  CC50: 16.4 µM
[12]
  GI50: 3.44 µM
  Total growth inhibition (TGI): 23.9 µM
[12]; [29]
  CC50: > 100 µM
[13]
  GI50: 1.94 µM
  Total growth inhibition (TGI): 3.69 µM
[13]; [29]
  CC50: 7.01 µM
[14]
  GI50: 1.69 µM
  Total growth inhibition (TGI): 3.1 µM
[14]; [29]
  CC50: 5.7 µM
[15]
  GI50: 2.18 µM
[15]; [29]
  CC50: > 100 µM
[16]
  % DPPH radical scavenging activity: 59.2%
[17]
  GI50: 1.72 µM
  Total growth inhibition (TGI): 4.23 µM
[17]; [29]
  CC50: > 100 µM
[18]
  GI50: 1.58 µM
  Total growth inhibition (TGI): 3.37 µM
[18]; [29]
  CC50: 7.2 µM
[19]
  GI50: 1.7 µM
  Total growth inhibition (TGI): 3.38 µM
[19]; [29]
  CC50: 6.73 µM
[20]
  GI50: 1.66 µM
  Total growth inhibition (TGI): 3.1 µM
[21]
  GI50: 1.71 µM
  Total growth inhibition (TGI): 3.25 µM
[21]; [29]
  CC50: 6.16 µM
[22]
  GI50: 1.71 µM
  Total growth inhibition (TGI): 7.57 µM
[22]; [29]
  CC50: > 100 µM
[23]
  GI50: 1.35 µM
  Total growth inhibition (TGI): 2.84 µM
[23]; [29]
  CC50: 5.97 µM
[24]
  GI50: 1.4 µM
  Total growth inhibition (TGI): 3.11 µM
[25]; Ovarian
  GI50: 1.94 µM
  Total growth inhibition (TGI): 4.41 µM
[25]; read-out: 50% lethal concentration (LC50), Ovarian
  CC50: > 100 µM
[26]; Non-Small Cell Lung
  Total growth inhibition (TGI): 7.29 µM
[26]; Non-Small-Cell Lung
  GI50: 2.39 µM
[26]; read-out: 50% lethal concentration (LC50), Non-Small Cell Lung
  CC50: 62.2 µM
[27]
  GI50: 0.92 µM
  Total growth inhibition (TGI): > 100 µM
[27]; [29]
  CC50: > 100 µM
[28]
  GI50: 1.95 µM
  Total growth inhibition (TGI): 4.24 µM
